Test results from patent US10751274B1, “Fast-acting micelle nanoparticle and cosmetic composition comprising same” (FOREST COMPANY, priority 2017, dated 2020).

Tested on: ICR mouse skin
Assay: Mouse skin penetration experiment, Franz diffusion cell
Assay type: in vitro ADME, ICR outbred albino mice
Settings: after 24 hr
Protocol: In order to evaluate the transdermal penetration rate of the micelle nanoparticles of Example 1, a mouse skin penetration experiment was performed through a Franz diffusion cell using the micelle nanoparticles as a sample. The mouse skin was extracted from the back of ICR outbred albino mice (12-week-old, about 50 g, females), which were killed by cervical dislocation. The subcutaneous fat was removed from the extracted skin (1.5 cm×1.5 cm) so that the skin was not hurt, and the dermis was used without being removed. The skin was fixed between the donor and the receptor phase so that the stratum corneum part of the back skin of the prepared ICR mice faced upwards.
The transepidermal area contacting the receptor phase was 0.6362 cm^2, and the receptor phase was a mixed solution of 2.0% HCO-60 (in 20% ethanol), showing the highest solubility in the preliminary experiments. 5 ml of the receptor phase was placed in a Franz diffusion cell, and the temperature was maintained at 37.0±0.5° C. using a constant-temperature water bath. Stirring to homogeneity was performed at 150 rpm for 24 hr. 0.5 ml of each sample was applied to the transepidermal surface of the donor, after which 0.75 ml of the receptor phase was collected every 8 hr (a total of 3 times) for 24 hr through a sampling port using a 1 ml syringe and stored in a 1.5 ml tube. Immediately after collection, supplementation with the same amount of the receptor solution was conducted. As such, the collected sample was analyzed through HPLC in order to quantify […] therein.
In order to measure the amount of PhS1P remaining on the skin, unpenetrated samples were washed three times with PBS immediately after taking the skin out of the diffusion cell. […] The ethanol was evaporated to dryness, after which PhS1P was dissolved again in 0.75 ml of ethanol, and the amount of PhS1P remaining on the skin was quantified through HPLC. […]

`CCCCCCCCCCCCCC[C@@H](O)[C@@H](O)[C@@H](N)COP(=O)(O)O` [PhS1P solution, phytosphingosine-1-phosphate] was tested, and the “amount of PhS1P remaining in the stratum corneum (tape stripping)” value was 1.81 µg, the “amount of PhS1P that penetrated the skin (final cumulative)” value (receptor phase sampled every 8 hr, 0.5 ml sample) was 2.52 µg and the “amount of PhS1P present in the skin” value (tape-stripped skin) was 2.72 µg.
